Experimental data published in PMC3948684, “Approaches to Improve the Oral Bioavailability and Effects of Novel Anticancer Drugs Berberine and Betulinic Acid” (PLoS ONE, 2014).

Experiments:
A549 cells = experiment: In vitro cytotoxicity, crystal violet staining; type: cell-based; conditions: Homo sapiens, BBR, 72 h exposure
Protocol: (§1) NSCLC cells A549 and H1650 were plated in 96 well plates at 10,000 cells/well density. After 24 h, cells were treated with various concentrations of BBR and BA. DMSO (0.1%) treated cells were considered as control cells. After 72 h treatment, cells were fixed in 0.25% gultaraldehyde and stained with 0.05% crystal violet staining. Percent of cell viability or cell kill was calculated by considering DMSO treated control cells as 100% viable (zero % cell kill).

H1650 cells = experiment: In vitro cytotoxicity, crystal violet staining; type: cell-based; conditions: Homo sapiens, NCI-H1650; BBR, 72 h exposure
Protocol: as §1

H1650 colonies = experiment: Clonogenic assay (colony formation); type: cell-based, Human; conditions: BBR at 1, 3 and 10 µM
Text: Supplementary file pone.0089919.s002.tif: Figure S2 Effect of BBR on colony formation. A) Effects of BBR free drug and BBR-SD on spheroid number B) on spheroid sizes. Representative clonogenic images of H1650 colonies form C) control and D) BBR free drug and BBR-SD treated groups. Colonies were stained with crystal violet staining for better visibility. Each data point is represented as mean±sem (n = 6–10). **p<0.01 and ***p<0.001 Vs respective untreated control groups. (TIF) Click here for additional data file.

Bcl-2 = experiment: Western blot of orthotopic lung tumor lysates; type: in vivo, athymic Nu/nu mice; conditions: A549 tumors; densitometry
Protocol: (§2) Western blot analysis was performed to study the expression of Bcl-2, cleaved caspase 3, survivin, cyclin D1, p53, MMP-9, HIF-1α. The detailed procedure was given as Data S1.
(§3) B) Western blot analysis: western blot analysis was performed to study the expression of Bcl-2, cleaved caspase 3, survivin, cyclin D1, p53, MMP-9, HIF-1α. The detailed procedure was given in supplementary data. Protein was extracted from tumor tissues collected from untreated control and drug treated animals using RIPA lysis buffer (50mM Tris-HCL, pH 8.0, with 150 mM sodium chloride, 1.0% Igepal CA-630 (NP-40), 0.5% sodium deoxychlorate, and 0.1% sodium dodecyl sulfate) with protease inhibitor and 500 mM phenylmethylsulfonyl fluoride. Protein concentration was measured using BCA Protein Assay Reagent Kit (PIERCE, Rockford, IL). Equal amounts of supernatant protein (50 μg) was denatured by boiling for 5 min in SDS sample buffer, separated by 10% SDS-PAGE, transferred to nitrocellulose membranes for immunoblotting. Membranes were blocked with 5% skim milk in Tris-buffered saline with Tween 20 [10mM Tris-HCL (pH 7.6), 150 mM Nacl, and 0.5% Tween 20] and probed with antibodies against Bcl-2 (1:1000), cleaved caspase 3 (1:500), survivin (1:1000), cyclin D1(1:1000), p53 (1:1000), MMP-9 (1:1000), HIF-1α (1:1000) and β-actin (1:1000). Horseradish peroxidase-conjugated secondary antibodies (Santa Cruz Biotechnology, Santa Cruz, CA) were used. Proteins were visualized using enhanced chemiluminescent solution (Pierce, Rockford, IL) and exposed to Kodak X-OMAT AR autoradiography film (Eastman Kodak, Rochester, NY).

HIF-1α = experiment: Western blot of orthotopic lung tumor lysates; type: in vivo, athymic Nu/nu mice; conditions: A549 tumors
Protocol: as §2, §3

cyclin D1 = experiment: Western blot of orthotopic lung tumor lysates; type: in vivo, athymic Nu/nu mice; conditions: A549 tumors; densitometry
Protocol: as §2, §3

p53 = experiment: Western blot of orthotopic lung tumor lysates; type: in vivo, athymic Nu/nu mice; conditions: A549 tumors; densitometry
Protocol: as §2, §3

survivin = experiment: Western blot of orthotopic lung tumor lysates; type: in vivo, athymic Nu/nu mice; conditions: A549 tumors; densitometry
Protocol: as §2, §3

CD31 = experiment: IHC analysis of orthotopic lung tumor sections (microvessel density); type: in vivo, athymic Nu/nu mice; conditions: A549 tumors; CD31 positive cells
Text: Formalin fixed tumors were processed for automatic histopathological procedures. The detailed procedure was provided in Data S1 [30].
C) IHC for cleaved caspase 3 and CD31: Formalin fixed tumors were processed for automatic histopathological procedures. The detailed procedure was provided in supplmmentary data (Supple). Tissue sections were dehydrated by immersing in increasing concentrations of alcohol and embedded in paraffin. Paraffin embedded specimens were cut into thin sections (4-5 µm). Tissue sections (4–5 μm thick) were mounted on poly-L-lysine–coated slides and sections were deparaffinized with xylene and rehydration through graded concentrations of alcohol, then incubated with 3% […] for 20 min to block endogenous peroxidase activity. Antigen retrieval for cleaved caspase 3 and CD31 staining was carried out for 10 min in 0.01 M sodium citrate buffer (pH 6), heated at 95°C in a steam bath followed by cooling for 30 min. Endogenous peroxidase was blocked by 3% hydrogen peroxide in PBS for 10 min. The slides were washed with PBS and incubated for 1h at room temperature with a protein blocking solution. […] Numbers of positive cells per filed was quantified by counting 10 different fields from each section. Based on the CD31 positive cells, microvessel density (MVD) was calculated (30).

[1] = Toxicity on chronic administration (body weights, H&E histopathology); conditions: 100 mg/kg for 3 weeks
Protocol: A549 cells were grown in F12K Medium containing 10% FBS and standard antibiotic mix at 5% CO2 and 37°C. For orthotopic lung tumor model, mice were anesthetized with Isoflurane and a 5 mm skin incision was made to the left chest, 5 mm below the scapula. Hamilton syringes (1 ml) with 28-gauge hypodermic needles were used to inject the cell inoculums through the sixth intercostal space into the left lung. The needle was quickly advanced to a depth of 3 mm and quickly removed after the injection of the A549 cells (2 million/mouse) suspended in 100 µL PBS (pH 7.4) into the lung parenchyma. For metastatic lung tumor models H1650 cells (2 million in 100 µL PBS) were intravenously administered to mice via tail vein. […] Wounds from the incisions were closed with surgical skin clips. […] Drug treatment was started 2 weeks after the tumor cell implantation. BBR free drug or SD formulation was given orally at the dose of 100 mg/kg daily for 3 weeks. […] Body weights were monitored throughout the study. Animal survival rates were recorded during the study. The lung weights and tumor volumes were used for assessment of therapeutic activity of the treatments. After sacrificing the animals lung weights and tumor nodules were recorded in metastatic tumor models.
Orthotopic lung tumors and mice small intestine segments (ileum) were processed for normal histopathological procedures and 5–10 µm sections were made. After deparaffinization and rehydration, sections were stained with Hematoxylin and Eosin for normal histological evaluation. Similarly, small intestine segments were processed and stained with H&E and visualized under normal microscope.

SMILES: COc1ccc2cc3[n+](cc2c1OC)CCc1cc2c(cc1-3)OCO2.[Cl-] [BBR free drug, 5,6-dihydro-9,10-dimethoxy-benzo[g]-1,3-benzodioxolo[5,6-a]quinolizinium, chloride]
- IC50 (A549 cells): 6.45 ± 0.46 µM
- IC50 (H1650 cells): 8.39 ± 1.03 µM
- number of colonies and colony sizes (H1650 colonies): significantly decreased
- beta actin relative Bcl-2 expression reduced compared to untreated control (Bcl-2): 2.79 fold
- HIF-1α expression (HIF-1α): significantly down regulated
- cyclin D1 relative expression reduced compared to untreated control (cyclin D1): 1.02 fold
- relative expression of p53 increased compared to untreated control (p53): 2.51 fold
- survivin expression down regulated compared to control (survivin): 2.03 fold
- microvessel density (MVD) reduced compared to untreated control tumors (CD31): 1.44 fold
- H&E histopathology of small intestine (ileum) [1]: No visible toxicity
- body weight changes during treatment [1]: no significant change
- signs of toxicity on chronic administration [1]: did not result in any toxicity
